Reference: PubChem BioAssay AID256 (DTP/NCI, 2004)
Several values for one entry are separate records, joined by “and”; a condition that tells them apart may be missing. Identical values can stand only once. Inconclusive results and toxic doses are left out. The calls were made as follows: active = survival T/C of 150% or more; inactive = T/C below 125% in these data.

System: CD2F1 mice, L1210 leukemia ip, survival T/C
Assay: NCI In Vivo Anticancer Drug Screen. Data for tumor model L1210 Leukemia (intraperitoneal) in CD2F1 (CDF1) mice
Settings: higher = longer survival
Summary of the method: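 Transplantable tumor in mice; compound-treated vs vehicle-treated groups. Read-out = treated/control ratio of the measured endpoint.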

[1] = endpoint: mean survival time, dose: 100.0 mg/kg/injection, schedule: Q01DX009 (ip), vehicle: saline with Tween-80
[2] = endpoint: mean survival time, dose: 200.0 mg/kg/injection, schedule: Q01DX009 (ip), vehicle: saline with Tween-80
[3] = endpoint: mean survival time, dose: 200.0 mg/kg/injection, schedule: Q04DX003 (ip), vehicle: saline with Tween-80
[4] = endpoint: mean survival time, dose: 400.0 mg/kg/injection, schedule: Q01DX009 (ip), vehicle: saline with Tween-80
[5] = endpoint: mean survival time, dose: 400.0 mg/kg/injection, schedule: Q04DX003 (ip), vehicle: saline with Tween-80
[6] = endpoint: mean survival time, dose: 50.0 mg/kg/injection, schedule: Q01DX009 (ip), vehicle: saline with Tween-80
[7] = endpoint: mean survival time, dose: 100.0 mg/kg/injection, schedule: Q04DX003 (ip), vehicle: saline with Tween-80
[8] = endpoint: mean survival time, dose: 25.0 mg/kg/injection, schedule: Q04DX003 (ip), vehicle: saline with Tween-80
[9] = endpoint: mean survival time, dose: 50.0 mg/kg/injection, schedule: Q04DX003 (ip), vehicle: saline with Tween-80
[10] = endpoint: mean survival time, dose: 100.0 mg/kg/injection, schedule: Q04DX002 (ip), vehicle: saline with Tween-80
[11] = endpoint: mean survival time, dose: 200.0 mg/kg/injection, schedule: Q04DX002 (ip), vehicle: saline with Tween-80
[12] = endpoint: mean survival time, dose: 5.0 mg/kg/injection, schedule: Q01DX001 (ip), vehicle: saline
[13] = endpoint: mean survival time, dose: 10.0 mg/kg/injection, schedule: Q01DX001 (ip), vehicle: saline
[14] = endpoint: mean survival time, dose: 20.0 mg/kg/injection, schedule: Q01DX001 (ip), vehicle: saline

Measured: T/C

O=c1[nH]c(-c2ccccc2)nc(-c2ccc(Cl)cc2)c1CCO
inactive: [1] 95 % of control | [2] 91 % of control | [3] 91 % of control | [4] 96 % of control | [5] 86 % of control

CCCCCOC(=O)CC(N)C(=O)OCCCCC (centres undefined)
inactive: [6] 96 % of control | [1] 100 % of control | [7] 93 % of control | [2] 91 % of control | [3] 93 % of control

[Cl][Pt+2][Cl].[NH-]c1ccc(C(=O)c2ccccc2)cc1[NH-]
inactive: endpoint: mean survival time, dose: 2.5 mg/kg/injection, schedule: Q01DX009 (ip), vehicle: saline with Tween-80 105 % of control | endpoint: mean survival time, dose: 5.0 mg/kg/injection, schedule: Q01DX009 (ip), vehicle: saline with Tween-80 105 % of control | endpoint: mean survival time, dose: 10.0 mg/kg/injection, schedule: Q01DX009 (ip), vehicle: saline with Tween-80 106 % of control | endpoint: mean survival time, dose: 20.0 mg/kg/injection, schedule: Q01DX009 (ip), vehicle: saline with Tween-80 100 % of control and 106 % of control | endpoint: mean survival time, dose: 40.0 mg/kg/injection, schedule: Q01DX009 (ip), vehicle: saline with Tween-80 102 % of control and 105 % of control | endpoint: mean survival time, dose: 80.0 mg/kg/injection, schedule: Q01DX009 (ip), vehicle: saline with Tween-80 101 % of control | endpoint: mean survival time, dose: 160.0 mg/kg/injection, schedule: Q01DX009 (ip), vehicle: saline with Tween-80 100 % of control | endpoint: mean survival time, dose: 320.0 mg/kg/injection, schedule: Q01DX009 (ip), vehicle: saline with Tween-80 100 % of control

CNC(=O)Oc1c(Cl)c(C(Cl)(Cl)Cl)nc2ccccc12
inactive: [8] 96 % of control | [9] 97 % of control | [7] 89 % of control

CCCCN1C(=O)c2c(Cl)c(Cl)c(Cl)c(Cl)c2C1=O
inactive: endpoint: mean survival time, dose: 25.0 mg/kg/injection, schedule: Q04DX002 (ip), vehicle: other 90 % of control | endpoint: mean survival time, dose: 50.0 mg/kg/injection, schedule: Q04DX002 (ip), vehicle: other 90 % of control | endpoint: mean survival time, dose: 100.0 mg/kg/injection, schedule: Q04DX002 (ip), vehicle: other 86 % of control

Cc1nc(N)nc2c1CCC(=O)N2C
inactive: endpoint: mean survival time, dose: 50.0 mg/kg/injection, schedule: Q04DX002 (ip), vehicle: saline with Tween-80 97 % of control | endpoint: mean survival time, dose: 100.0 mg/kg/injection, schedule: Q01DX001 (ip), vehicle: Klucel (hydroxypropylcellulose) (HPC) 102 % of control | [10] 97 % of control | endpoint: mean survival time, dose: 200.0 mg/kg/injection, schedule: Q01DX001 (ip), vehicle: Klucel (hydroxypropylcellulose) (HPC) 90 % of control | [11] 97 % of control

CN(C)CCSc1cc(O)c2c(c1O)C(=O)c1ccccc1C2=O
inactive: endpoint: mean survival time, dose: 25.0 mg/kg/injection, schedule: Q01DX009 (ip), vehicle: water 95 % of control | endpoint: mean survival time, dose: 50.0 mg/kg/injection, schedule: Q01DX009 (ip), vehicle: water 98 % of control | endpoint: mean survival time, dose: 100.0 mg/kg/injection, schedule: Q01DX009 (ip), vehicle: water 92 % of control | endpoint: mean survival time, dose: 200.0 mg/kg/injection, schedule: Q01DX009 (ip), vehicle: water 95 % of control

Cc1cn(C2CC(O)C(CO)O2)c(=O)nc1NCC12CC3CC(CC(C3)C1)C2 (centres undefined)
inactive: endpoint: median survival time, dose: 12.5 mg/kg/injection, schedule: Q01DX005 (ip), vehicle: distilled water + Tween-80 105 % of control | endpoint: median survival time, dose: 25.0 mg/kg/injection, schedule: Q01DX005 (ip), vehicle: distilled water + Tween-80 104 % of control | endpoint: median survival time, dose: 50.0 mg/kg/injection, schedule: Q01DX005 (ip), vehicle: distilled water + Tween-80 102 % of control | endpoint: median survival time, dose: 100.0 mg/kg/injection, schedule: Q01DX005 (ip), vehicle: distilled water + Tween-80 94 % of control

COc1cc(NC(=O)Nc2ccccc2OC)c(OC)cc1Cl
inactive: [10] 90 % of control | [11] 93 % of control | endpoint: mean survival time, dose: 400.0 mg/kg/injection, schedule: Q04DX002 (ip), vehicle: saline with Tween-80 107 % of control

O=NC1C2CCC(C2)C1Cl (centres undefined)
inactive: [12] 98 % of control | [13] 97 % of control | [14] 95 % of control

c1ccc(-c2c3ccccc3c(-c3ccccc3)c3c2ccc2ccccc23)cc1
inactive: endpoint: mean survival time, dose: 6.25 mg/kg/injection, schedule: Q01DX009 (ip), vehicle: Klucel (hydroxypropylcellulose) (HPC) 89 % of control | endpoint: mean survival time, dose: 12.5 mg/kg/injection, schedule: Q01DX009 (ip), vehicle: Klucel (hydroxypropylcellulose) (HPC) 89 % of control | endpoint: mean survival time, dose: 25.0 mg/kg/injection, schedule: Q01DX009 (ip), vehicle: Klucel (hydroxypropylcellulose) (HPC) 91 % of control

CCc1c(C)[nH]c2ccc([N+](=O)[O-])cc12
inactive: [6] 103 % of control | [1] 94 % of control | [7] 100 % of control | [2] 97 % of control | [3] 93 % of control

CCOC(=O)Nc1cc(Cl)c2nnn(C(=O)OCC)c2n1
inactive: endpoint: mean survival time, dose: 12.5 mg/kg/injection, schedule: Q01DX005 (ip), vehicle: water 105 % of control | endpoint: mean survival time, dose: 25.0 mg/kg/injection, schedule: Q01DX005 (ip), vehicle: water 98 % of control | endpoint: mean survival time, dose: 50.0 mg/kg/injection, schedule: Q01DX005 (ip), vehicle: water 96 % of control | endpoint: mean survival time, dose: 100.0 mg/kg/injection, schedule: Q01DX005 (ip), vehicle: water 105 % of control

CCOC(=O)CC(=O)c1ccccc1
inactive: [1] 96 % of control | [2] 102 % of control | [4] 89 % of control

O=S=NNc1ccccc1
inactive: endpoint: mean survival time, dose: 12.5 mg/kg/injection, schedule: Q01DX009 (ip), vehicle: saline with Tween-80 108 % of control | endpoint: mean survival time, dose: 25.0 mg/kg/injection, schedule: Q01DX009 (ip), vehicle: saline with Tween-80 102 % of control | [6] 88 % of control and 90 % of control | [7] 95 % of control | [3] 89 % of control

Oc1ccc2c3c1OC1C(O)C=CC4C(C2)NCCC341 (centres undefined)
inactive: endpoint: mean survival time, dose: 25.0 mg/kg/injection, schedule: Q04DX003 (ip), vehicle: DMSO 95 % of control | endpoint: mean survival time, dose: 50.0 mg/kg/injection, schedule: Q04DX003 (ip), vehicle: DMSO 95 % of control | endpoint: mean survival time, dose: 100.0 mg/kg/injection, schedule: Q04DX003 (ip), vehicle: DMSO 106 % of control

Clc1ccc(OCC2CO2)cc1 (centres undefined)
inactive: [8] 101 % of control | [9] 101 % of control | [7] 98 % of control

COc1ccc(C(C)=O)cc1C=O
inactive: [1] 87 % of control | [7] 97 % of control | [2] 92 % of control | [3] 104 % of control | [4] 90 % of control | [5] 102 % of control

OCC1OC(n2cnc3cc(Cl)c(Cl)cc32)C(O)C1O (centres undefined)
inactive: endpoint: median survival time, dose: 25.0 mg/kg/injection, schedule: Q01DX009 (ip), vehicle: saline with Tween-80 97 % of control and 103 % of control | endpoint: median survival time, dose: 50.0 mg/kg/injection, schedule: Q01DX009 (ip), vehicle: saline with Tween-80 106 % of control | endpoint: median survival time, dose: 100.0 mg/kg/injection, schedule: Q01DX009 (ip), vehicle: saline with Tween-80 120 % of control and 110 % of control and 112 % of control | endpoint: median survival time, dose: 200.0 mg/kg/injection, schedule: Q01DX009 (ip), vehicle: saline with Tween-80 120 % of control

FC1CC=C(S)CC1 (centres undefined)
inactive: [12] 100 % of control | [13] 106 % of control | [14] 103 % of control | endpoint: mean survival time, dose: 40.0 mg/kg/injection, schedule: Q01DX001 (ip), vehicle: saline 100 % of control | endpoint: mean survival time, dose: 80.0 mg/kg/injection, schedule: Q01DX001 (ip), vehicle: saline 102 % of control
